Test [1] deals with T1, Muscarinic acetylcholine receptor M1 (Homo sapiens, UniProt P11229).
T1 sequence (P11229 whole entry): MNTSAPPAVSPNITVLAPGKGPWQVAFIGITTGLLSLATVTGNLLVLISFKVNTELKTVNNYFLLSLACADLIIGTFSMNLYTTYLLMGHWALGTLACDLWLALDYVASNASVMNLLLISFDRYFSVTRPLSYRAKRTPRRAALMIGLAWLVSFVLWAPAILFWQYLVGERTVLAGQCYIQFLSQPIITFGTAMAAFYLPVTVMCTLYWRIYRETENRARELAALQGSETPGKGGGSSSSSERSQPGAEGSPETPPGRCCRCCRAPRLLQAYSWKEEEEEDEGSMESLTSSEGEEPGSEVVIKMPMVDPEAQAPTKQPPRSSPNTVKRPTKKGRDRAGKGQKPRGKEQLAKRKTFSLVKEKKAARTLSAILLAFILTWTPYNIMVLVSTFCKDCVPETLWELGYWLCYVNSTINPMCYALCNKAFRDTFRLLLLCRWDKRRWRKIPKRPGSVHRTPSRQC
The test is described as follows: Ability to displace [3H]N-methylscopolamine from Muscarinic acetylcholine receptor M1 expressed in CHO cells. It is filed as cell-based.

Test [2] deals with T1, Muscarinic acetylcholine receptor M1. Description: Ability to displace [3H]oxotremorine from Muscarinic acetylcholine receptor M1 expressed in CHO cells. Format: cell-based.

In general, IC50 refers to the midpoint of a concentration-inhibition curve. Take `COc1cc(CO/N=C/C2CN3CCC2C3)on1` (centres undefined): the IC50 in test [1] worked out at 16.7 µM; in test [2], 0.287 µM.

Regarding `Brc1cc(CO/N=C/C2CN3CCC2CC3)on1` (centres undefined), the values for the IC50 in test [1] and in test [2] were 8.4 µM and 1.22 µM, respectively.

As to `Brc1cc(CO/N=C/C2CN3CCC2C3)on1` (centres undefined), the IC50 was 17.7 µM in test [1] and 0.385 µM in test [2].

`N#Cc1cc(CO/N=C/C2CN3CCC2CC3)on1` (centres undefined): the IC50 in test [1] was found to be 133 µM; in test [2] it was 0.341 µM.

On to `COc1cc(CO/N=C/C2CN3CCC2CC3)on1` (centres undefined), for which the IC50 came to 29.5 µM in test [1] and 1.64 µM in test [2].

For the molecule `COc1cc(CO/N=C2\CN3CCC2CC3)on1`, the values for the IC50 in test [1] and in test [2] were 35.6 µM and 0.362 µM, respectively.

For `Clc1cc(CO/N=C2\CN3CCC2CC3)on1`, the IC50 came out at 13.8 µM in test [1] and 0.057 µM in test [2].

With `Brc1cc(CO/N=C2\CN3CCC2CC3)on1`, the IC50 in test [1] was 11.5 µM; in test [2] it was 0.072 µM.

Consider `N#Cc1cc(CO/N=C/C2CN3CCC2C3)on1` (centres undefined), for which the figures for the IC50 in test [1] and in test [2] were 189 µM and 1.86 µM, respectively.

Consider `Clc1cc(CO/N=C/C2CN3CCC2C3)on1` (centres undefined), for which the IC50 was found to be 14.9 µM in test [1] and 0.044 µM in test [2].

With `N#Cc1cc(CO/N=C2\CN3CCC2C3)on1` (centres undefined), the IC50 in test [1] came out at 32.5 µM; in test [2] it was 0.082 µM.

Take `COc1cc(CO/N=C2\CN3CCC2C3)on1` (centres undefined): the values for the IC50 in test [1] and in test [2] were 40.5 µM and 0.131 µM, respectively.

As for `O=C1CCCN1CC#CCN1CCCC1` [OXOTREMORINE], the IC50 was 27.1 µM in test [1] and 0.0023 µM in test [2].

Consider `Brc1cc(CO/N=C2\CN3CCC2C3)on1` (centres undefined), for which the IC50 in test [1] was 48.8 µM; in test [2], 0.079 µM.

On to `Clc1cc(CO/N=C/C2CN3CCC2CC3)on1` (centres undefined), for which the IC50 was determined as 23.5 µM in test [1] and 0.795 µM in test [2].

With `Clc1cc(CO/N=C2\CN3CCC2C3)on1` (centres undefined), the IC50 in test [1] stood at 36.3 µM; in test [2], 0.023 µM.

For the molecule `N#Cc1cc(CO/N=C2\CN3CCC2CC3)on1`, the IC50 in test [1] is 8.7 µM; in test [2] it was 0.081 µM.

Source of the values: ChEMBL document CHEMBL1133831 (Bioorg Med Chem Lett, 2001).
